From patent US5051403A (priority 1989, dated 1991)

Columns and labels:
[1] = test system: voltage-gated calcium channels, N1E115 mouse neuroblastoma cells; assay type: cell-based
[2] = test system: OCT receptor sites, NG-108 cells; assay type: binding, Rat glioma x mouse neuroblastoma

Compound	ED50 (50% inhibition of calcium current) [1]	concentration of specific binding sites [2]
C[C@@H](O)[C@@H]1NC(=O)[C@H](Cc2ccc(O)cc2)NC(=O)[C@@H]2C[C@@H](O)CN2C(=O)[C@H](CC(N)=O)NC(=O)[C@@H]2CSSC[C@@H]3NC(=O)[C@H](CO)NC(=O)[C@H](CO)NC(=O)CNC(=O)[C@@H]4C[C@@H](O)CN4C(=O)[C@H](CO)NC(=O)[C@H](CCCCN)NC(=O)[C@@H](N)CSSC[C@H](NC(=O)[C@H](CSSC[C@@H](C(=O)N[C@@H](Cc4ccc(O)cc4)C(N)=O)NC(=O)[C@H](CCCNC(=N)N)NC(=O)[C@H](CCCCN)NC1=O)NC(=O)[C@H](CC(N)=O)NC(=O)[C@H](Cc1ccc(O)cc1)NC(=O)[C@H](CO)NC(=O)[C@H]([C@@H](C)O)NC(=O)[C@@H]1C[C@@H](O)CN1C(=O)[C@H](CO)NC3=O)C(=O)N[C@@H](CCCNC(=N)N)C(=O)N[C@@H](CO)C(=O)N2 [GVIA, HCysLysSer4HypGlySerSerCysSer4HypThrSerTyrAsnCysCysArgSerCysAsn4HypTyrLysArgCysTyr-NH2]	0.012 µM	
CSCC[C@@H]1NC(=O)[C@H](CC(C)C)NC(=O)[C@H](CCCNC(=N)N)NC(=O)[C@H](CO)NC(=O)[C@@H]2CSSC[C@@H]3NC(=O)[C@H](CO)NC(=O)CNC(=O)[C@H]([C@@H](C)O)NC(=O)[C@H](CSSC[C@H](N)C(=O)N[C@@H](CCCCN)C(=O)NCC(=O)N[C@@H](CCCCN)C(=O)NCC(=O)N[C@@H](C)C(=O)N[C@@H](CCCCN)C(=O)N2)NC(=O)[C@H](CSSC[C@@H](C(N)=O)NC(=O)[C@H](CCCCN)NC(=O)CNC(=O)[C@H](CO)NC(=O)[C@H](CCCNC(=N)N)NC3=O)NC(=O)[C@H](CC(=O)O)NC(=O)[C@H](Cc2ccc(O)cc2)NC1=O [MVIIA]		45.6
